Source: patent US20250171438A1 (Agios Pharmaceuticals, Inc., priority 2022, published 2025)

Each molecule was assayed against T1, human PAH with the R408W mutation (Homo sapiens, UniProt P00439, R408W) (assay: Cell Based Phenylalanine Flux Assay). Conditions: A375 cells expressing human R408W PAH; 24 hrs compound incubation; 13C-Tyrosine by LC-MS; average where tested multiple times; read-out: AC50.
T1 construct: expressed in transfected cells
T1 sequence (P00439 1-452 R408W): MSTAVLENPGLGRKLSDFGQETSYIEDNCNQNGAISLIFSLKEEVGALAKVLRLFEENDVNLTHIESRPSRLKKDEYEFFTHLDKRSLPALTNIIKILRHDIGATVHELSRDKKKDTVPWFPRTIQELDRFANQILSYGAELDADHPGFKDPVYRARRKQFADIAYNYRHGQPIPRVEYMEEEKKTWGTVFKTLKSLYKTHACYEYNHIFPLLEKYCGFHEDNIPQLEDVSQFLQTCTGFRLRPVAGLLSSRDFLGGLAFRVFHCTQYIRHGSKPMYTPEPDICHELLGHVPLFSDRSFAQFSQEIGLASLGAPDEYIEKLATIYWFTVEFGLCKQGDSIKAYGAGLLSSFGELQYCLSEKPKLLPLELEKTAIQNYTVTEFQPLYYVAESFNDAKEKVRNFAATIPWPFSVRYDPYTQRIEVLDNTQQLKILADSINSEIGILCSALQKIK
Work on `O=C(c1cnn2cc(F)ccc12)N1CCc2[nH]cnc2[C@@H]1c1nc2ccccc2s1` [Example 1040, (R)-(4-(benzo[d]thiazol-2-yl)-6,7-dihydro-1H-imidazo[4,5-c]pyridin-5(4H)-yl)(6-fluoropyrazolo[1,5-a]pyridin-3-yl)methanone] yielded an AC50 of over 5 µM. `Cc1nnc(C(=O)N2CCc3[nH]cnc3[C@H]2c2nc3ccccc3s2)s1` [Example 1041] showed an AC50 of 1 to 5 µM. In the case of `Cc1nnc(C(=O)N2CCc3[nH]cnc3[C@@H]2c2nc3ccccc3s2)s1` [Example 1042, (R)-(4-(benzo[d]thiazol-2-yl)-6,7-dihydro-1H-imidazo[4,5-c]pyridin-5(4H)-yl)(5-methyl-1,3,4-thiadiazol-2-yl)methanone], the AC50 is reported as over 5 µM. Work on `Cc1csc(C(=O)N2CCc3[nH]cnc3[C@@H]2c2nc3ccccc3s2)n1` [Example 1043, (R)-(4-(benzo[d]thiazol-2-yl)-6,7-dihydro-1H-imidazo[4,5-c]pyridin-5(4H)-yl)(4-methylthiazol-2-yl)methanone] yielded an AC50 of over 5 µM. Work on `Cc1csc(C(=O)N2CCc3[nH]cnc3[C@H]2c2nc3ccccc3s2)n1` [Example 1044] yielded an AC50 of 1 to 5 µM. With `O=C(c1cnn2ccc(Br)cc12)N1CCc2[nH]cnc2[C@H]1c1nc2ccccc2s1` [Example 1047] the AC50 was under 0.5 µM. With `O=C(c1cnn2ccc(Br)cc12)N1CCc2[nH]cnc2[C@@H]1c1nc2ccccc2s1` [Example 1048, (R)-(4-(benzo[d]thiazol-2-yl)-6,7-dihydro-1H-imidazo[4,5-c]pyridin-5(4H)-yl)(5-bromopyrazolo[1,5-a]pyridin-3-yl)methanone] the AC50 was 1 to 5 µM. `O=C(c1n[nH]c2ccccc12)N1CCc2[nH]cnc2[C@H]1c1nc2ccccc2s1` [Example 1049] gave an AC50 of 0.5 to 1 µM. `O=C(c1n[nH]c2ccccc12)N1CCc2[nH]cnc2[C@@H]1c1nc2ccccc2s1` [Example 1050, (R)-(4-(benzo[d]thiazol-2-yl)-6,7-dihydro-1H-imidazo[4,5-c]pyridin-5(4H)-yl)(1H-indazol-3-yl)methanone] was tested, and the AC50 was over 5 µM. `O=C(c1ccns1)N1CCc2[nH]cnc2[C@H]1c1nc2ccccc2s1` [Example 1051] showed an AC50 of 0.5 to 1 µM. `O=C(c1ccns1)N1CCc2[nH]cnc2[C@@H]1c1nc2ccccc2s1` [Example 1052, (R)-(4-(benzo[d]thiazol-2-yl)-6,7-dihydro-1H-imidazo[4,5-c]pyridin-5(4H)-yl)(isothiazol-5-yl)methanone] was tested, and the AC50 was over 5 µM. `O=C(c1ncc(Cl)s1)N1CCc2[nH]cnc2[C@H]1c1nc2ccccc2s1` [Example 1053] gave an AC50 of 0.5 to 1 µM. `O=C(c1ncc(Cl)s1)N1CCc2[nH]cnc2[C@@H]1c1nc2ccccc2s1` [Example 1054, (R)-(4-(benzo[d]thiazol-2-yl)-6,7-dihydro-1H-imidazo[4,5-c]pyridin-5(4H)-yl)(5-chlorothiazol-2-yl)methanone] was tested, and the AC50 was 1 to 5 µM. `Cc1cnc(C(=O)N2CCc3[nH]cnc3[C@H]2c2nc3ccccc3s2)s1` [Example 1055] was tested, and the AC50 was 0.5 to 1 µM. With `Cc1cnc(C(=O)N2CCc3[nH]cnc3[C@@H]2c2nc3ccccc3s2)s1` [Example 1056, (R)-(4-(benzo[d]thiazol-2-yl)-6,7-dihydro-1H-imidazo[4,5-c]pyridin-5(4H)-yl)(5-methylthiazol-2-yl)methanone] the AC50 was over 5 µM. Work on `O=C(c1nc(Cl)cs1)N1CCc2[nH]cnc2[C@H]1c1nc2ccccc2s1` [Example 1057] yielded an AC50 of 0.5 to 1 µM. Molecule `O=C(c1nc(Cl)cs1)N1CCc2[nH]cnc2[C@@H]1c1nc2ccccc2s1` [Example 1058, (R)-(4-(benzo[d]thiazol-2-yl)-6,7-dihydro-1H-imidazo[4,5-c]pyridin-5(4H)-yl)(4-chlorothiazol-2-yl)methanone] has an AC50 of 1 to 5 µM. In the case of `O=C(c1cncs1)N1CCc2[nH]cnc2[C@H]1c1nc2ccccc2s1` [Example 1059], the AC50 is reported as under 0.5 µM. With `O=C(c1cncs1)N1CCc2[nH]cnc2[C@@H]1c1nc2ccccc2s1` [Example 1060, (R)-(4-(benzo[d]thiazol-2-yl)-6,7-dihydro-1H-imidazo[4,5-c]pyridin-5(4H)-yl)(thiazol-5-yl)methanone] the AC50 was over 5 µM. `O=C(c1cnsc1)N1CCc2[nH]cnc2[C@H]1c1nc2ccccc2s1` [Example 1061] was tested, and the AC50 was 0.5 to 1 µM. Molecule `O=C(c1cnsc1)N1CCc2[nH]cnc2[C@@H]1c1nc2ccccc2s1` [Example 1062, (R)-(4-(benzo[d]thiazol-2-yl)-6,7-dihydro-1H-imidazo[4,5-c]pyridin-5(4H)-yl)(isothiazol-4-yl)methanone] has an AC50 of over 5 µM. `O=C(c1cnn2cc(Cl)ccc12)N1CCc2[nH]cnc2[C@H]1c1nc2ccccc2s1` [Example 1063] showed an AC50 of under 0.5 µM. With `O=C(c1cnn2cc(Cl)ccc12)N1CCc2[nH]cnc2[C@@H]1c1nc2ccccc2s1` [Example 1064, (R)-(4-(benzo[d]thiazol-2-yl)-6,7-dihydro-1H-imidazo[4,5-c]pyridin-5(4H)-yl)(6-chloropyrazolo[1,5-a]pyridin-3-yl)methanone] the AC50 was over 5 µM. For `O=C(c1ccccc1)N1CCc2[nH]cnc2[C@H]1c1nc2ccccc2s1` [Example 1065], the AC50 was under 0.5 µM. `O=C(c1nncs1)N1CCc2[nH]cnc2[C@@H]1c1nc2ccccc2s1` [Example 1067, (R)-(4-(benzo[d]thiazol-2-yl)-6,7-dihydro-1H-imidazo[4,5-c]pyridin-5(4H)-yl)(1,3,4-thiadiazol-2-yl)methanone] gave an AC50 of over 5 µM. For `O=C(c1nncs1)N1CCc2[nH]cnc2[C@H]1c1nc2ccccc2s1` [Example 1068], the AC50 was 0.5 to 1 µM. Work on `O=C(c1cnn2c(Br)cccc12)N1CCc2[nH]cnc2[C@H]1c1nc2ccccc2s1` [Example 1069] yielded an AC50 of 0.5 to 1 µM. `O=C(c1cnn2c(Br)cccc12)N1CCc2[nH]cnc2[C@@H]1c1nc2ccccc2s1` [Example 1070, (R)-(4-(benzo[d]thiazol-2-yl)-6,7-dihydro-1H-imidazo[4,5-c]pyridin-5(4H)-yl)(7-bromopyrazolo[1,5-a]pyridin-3-yl)methanone] showed an AC50 of 1 to 5 µM. For `O=C(CC1CC1)N1CCc2[nH]cnc2[C@H]1c1nc2ccccc2s1` [Example 1071], the AC50 was under 0.5 µM. For `O=C(CC1CC1)N1CCc2[nH]cnc2[C@@H]1c1nc2ccccc2s1` [Example 1072, (R)-1-(4-(benzo[d]thiazol-2-yl)-6,7-dihydro-1H-imidazo[4,5-c]pyridin-5(4H)-yl)-2-cyclopropylethanone], the AC50 was 1 to 5 µM. For `O=C(C1CC1)N1CCc2[nH]cnc2[C@H]1c1nc2ccccc2s1` [Example 1073], the AC50 was 1 to 5 µM. `O=C(C1CC1)N1CCc2[nH]cnc2[C@@H]1c1nc2ccccc2s1` [Example 1074, (R)-(4-(benzo[d]thiazol-2-yl)-6,7-dihydro-1H-imidazo[4,5-c]pyridin-5(4H)-yl)(cyclopropyl)methanone] gave an AC50 of over 5 µM. Molecule `O=C(CCC1CC1)N1CCc2[nH]cnc2[C@H]1c1nc2cc(F)ccc2s1` [Example 1075, (S)-3-cyclopropyl-1-(4-(5-fluorobenzo[d]thiazol-2-yl)-6,7-dihydro-1H-imidazo[4,5-c]pyridin-5(4H)-yl)propan-1-one] has an AC50 of 0.5 to 1 µM. `O=C(CCC1CC1)N1CCc2[nH]cnc2[C@@H]1c1nc2cc(F)ccc2s1` [Example 1076, (R)-3-cyclopropyl-1-(4-(5-fluorobenzo[d]thiazol-2-yl)-6,7-dihydro-1H-imidazo[4,5-c]pyridin-5(4H)-yl)propan-1-one] was tested, and the AC50 was 1 to 5 µM. Work on `O=C(CCc1nccs1)N1CCc2[nH]cnc2[C@H]1c1nc2c(F)cccc2s1` [Example 1077, (S)-1-(4-(4-fluorobenzo[d]thiazol-2-yl)-6,7-dihydro-1H-imidazo[4,5-c]pyridin-5(4H)-yl)-3-(thiazol-2-yl)propan-1-one] yielded an AC50 of 1 to 5 µM. With `O=C(CCc1nccs1)N1CCc2[nH]cnc2[C@@H]1c1nc2c(F)cccc2s1` [Example 1078, (R)-1-(4-(4-fluorobenzo[d]thiazol-2-yl)-6,7-dihydro-1H-imidazo[4,5-c]pyridin-5(4H)-yl)-3-(thiazol-2-yl)propan-1-one] the AC50 was over 5 µM. Molecule `Cc1csc(CCC(=O)N2CCc3[nH]cnc3[C@H]2c2nc3ccccc3s2)n1` [Example 1079] has an AC50 of 0.5 to 1 µM. In the case of `Cc1csc(CCC(=O)N2CCc3[nH]cnc3[C@@H]2c2nc3ccccc3s2)n1` [Example 1080, (R)-1-(4-(benzo[d]thiazol-2-yl)-6,7-dihydro-1H-imidazo[4,5-c]pyridin-5(4H)-yl)-3-(4-methylthiazol-2-yl)propan-1-one], the AC50 is reported as over 5 µM. For `O=C(CCc1nccs1)N1CCc2[nH]cnc2[C@H]1c1nc2ccc(Br)cc2s1` [Example 1081, (S)-1-(4-(6-bromobenzo[d]thiazol-2-yl)-6,7-dihydro-1H-imidazo[4,5-c]pyridin-5(4H)-yl)-3-(thiazol-2-yl)propan-1-one], the AC50 was 0.5 to 1 µM. For `O=C(CCc1nccs1)N1CCc2[nH]cnc2[C@@H]1c1nc2ccc(Br)cc2s1` [Example 1082, (R)-1-(4-(6-bromobenzo[d]thiazol-2-yl)-6,7-dihydro-1H-imidazo[4,5-c]pyridin-5(4H)-yl)-3-(thiazol-2-yl)propan-1-one], the AC50 was over 5 µM. `COc1ccn2ncc(C(=O)N3CCc4[nH]cnc4[C@H]3c3nc4ccccc4s3)c2c1` [Example 1083] was tested, and the AC50 was under 0.5 µM. `COc1ccn2ncc(C(=O)N3CCc4[nH]cnc4[C@@H]3c3nc4ccccc4s3)c2c1` [Example 1084, (R)-(4-(benzo[d]thiazol-2-yl)-6,7-dihydro-1H-imidazo[4,5-c]pyridin-5(4H)-yl)(5-methoxypyrazolo[1,5-a]pyridin-3-yl)methanone] showed an AC50 of 1 to 5 µM.
